Experimental data from ChEMBL document CHEMBL1139002, “Synthesis and biological evaluation of simplified mycothiazole analogues” (2006).

Tests used:
[1] = test system: Nippostrongylus brasiliensis; assay: Anthelmintic activity against Nippostrongylus brasiliensis; type: functional
HCT-15 = assay: Cytotoxicity against HCT15 cell line by SRB assay; type: functional, Homo sapiens

SMILES	LC50 [1] [µM]	IG50 (HCT-15) [µM]
CCCSc1ccc2[nH]c(NC(=O)OC)nc2c1 [ALBENDAZOLE]	0.34	–
C=CC/C=C\C[C@@H]1COC(C(C)(C)C(C/C=C\CNC(=O)OC)OC(C)=O)=N1 (stereo partly drawn)	40	150
C=CC/C=C\C[C@@H]1CSC(C(C)(C)C(C/C=C\CNC(=O)OC)OC(C)=O)=N1 (stereo partly drawn)	> 300	–
CO[C@@]12[C@H](COC(N)=O)C3=C(C(=O)C(C)=C(N)C3=O)N1C[C@@H]1N[C@@H]12 [MITOMYCIN]	–	1.6
C=CCC1COC(C(C)(C)C(C/C=C\CNC(=O)OC)OC(C)=O)=N1 (stereo not drawn)	40	430
C=CC/C=C\C[C@@H]1CSC(C(C)(C)C(O)C/C=C\CNC(=O)OC)=N1 (stereo partly drawn)	–	13
